In patent US20250171447A1, “ADENOSINE RECEPTOR ANTAGONISTS, PHARMACEUTICAL COMPOSITIONS AND THEIR USE THEREOF” (Merck Sharp & Dohme LLC, priority 2022, published 2025):

Each compound was assayed against human A2A adenosine receptor (Homo sapiens (Human), UniProt P29274) (assay: A2A receptor affinity binding assay (radioligand filtration binding or SPA, [3H]SCH58261)). Details: membranes from HEK293 or CHO cells expressing human A2A; Method (A) filtration or Method (B) SPA.
Sequence of human A2A adenosine receptor (P29274 whole entry): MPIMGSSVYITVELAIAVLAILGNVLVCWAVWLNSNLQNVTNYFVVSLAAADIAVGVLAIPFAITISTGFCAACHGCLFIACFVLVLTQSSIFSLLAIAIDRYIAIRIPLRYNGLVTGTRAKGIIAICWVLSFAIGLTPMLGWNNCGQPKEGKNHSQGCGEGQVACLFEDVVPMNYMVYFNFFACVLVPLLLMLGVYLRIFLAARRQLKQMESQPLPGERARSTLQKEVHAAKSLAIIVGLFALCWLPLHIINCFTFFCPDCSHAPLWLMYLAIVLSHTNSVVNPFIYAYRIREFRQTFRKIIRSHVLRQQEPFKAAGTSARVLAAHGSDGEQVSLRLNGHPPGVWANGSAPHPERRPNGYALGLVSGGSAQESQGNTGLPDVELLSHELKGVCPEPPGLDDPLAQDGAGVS

SMILES	IC50 [nM]
COc1cccc2c1nc(N)n1nc([C@H]3C[C@H](c4ccc([C@@]5(C(F)(F)F)CCCCN5)cc4)C3)nc21 [Ex-100, 7-methoxy-2-(trans-3-{4-[(2R)-2-(trifluoromethyl)piperidin-2-yl]phenyl}cyclobutyl)[1,2,4]triazolo[1,5-c]quinazolin-5-amine]	3.2
COc1cccc2c1nc(N)n1nc([C@H]3C[C@@H](c4ccc([C@@H](N)C(F)F)cn4)C3)nc21 (single isomer, unassigned) [Ex-107]	8.2
COc1cccc2c1nc(N)n1nc([C@H]3C[C@@H](c4ncc(C(C)(C)N)cc4F)C3)nc21 [Ex-86, 2-{cis-3-[5-(2-aminopropan-2-yl)-3-fluoropyridin-2-yl]cyclobutyl}-7-methoxy[1,2,4]triazolo[1,5-c]quinazolin-5-amine]	12.7
Cc1nc(C(C)(C)N)cnc1[C@H]1C[C@H](c2nc3c4cccc(Cl)c4nc(N)n3n2)C1 [Ex-127, 2-((1r,3r)-3-(5-(2-aminopropan-2-yl)-3-methylpyrazin-2-yl)cyclobutyl)-7-chloro-[1,2,4]triazolo[1,5-c]quinazolin-5-amine]	2.9
COc1cc(F)cc2c1nc(N)n1nc([C@H]3C[C@@H](c4ccccc4C(C)(C)O)C3)nc21 (single isomer, unassigned) [Ex-52]	3
COc1cccc2c1nc(N)n1nc([C@H]3C[C@@H](c4ccc(CN5CCNCC5)cc4)C3)nc21 [Ex-97, 7-methoxy-2-(cis-3-{4-[(piperazin-1-yl)methyl]phenyl}cyclobutyl)[1,2,4]triazolo[1,5-c]quinazolin-5-amine]	0.3
COc1cccc2c1nc(N)n1nc([C@H]3C[C@@H](c4ncc(C5(N)COC5)cc4C)C3)nc21 [Ex-123, 2-{cis-3-[5-(3-aminooxetan-3-yl)-3-methylpyridin-2-yl]cyclobutyl}-7-methoxy[1,2,4]triazolo[1,5-c]quinazolin-5-amine]	1.8
COc1cccc2c1nc(N)n1nc([C@H]3C[C@H](c4ccc(N5CCN(C)CC5)nc4)C3)nc21 [Ex-114, 7-methoxy-2-{trans-3-[6-(4-methylpiperazin-1-yl)pyridin-3-yl]cyclobutyl}[1,2,4]triazolo[1,5-c]quinazolin-5-amine]	1.3
COc1cccc2c1nc(N)n1nc([C@H]3C[C@@H](c4ccc([C@H](N)C(F)F)cn4)C3)nc21 (single isomer, unassigned) [Ex-105]	2.7
COc1cccc2c1nc(N)n1nc([C@H]3C[C@H](c4ccc(C(C)(N)C(F)F)nc4)C3)nc21 (some centres unmarked) [Ex-92, 2-{(1r,3r)-3-[6-(2-amino-1,1-difluoropropan-2-yl)pyridin-3-yl]cyclobutyl}-7-methoxy[1,2,4]triazolo[1,5-c]quinazolin-5-amine]	14.1
COc1cccc2c1nc(N)n1nc([C@H]3C[C@H](c4ccc(C5(N)CC(F)(F)C5)cn4)C3)nc21 [Ex-141]	3.1
COc1cccc2c1nc(N)n1nc([C@H]3C[C@H](c4ccc([C@H](N)C(F)(F)F)cn4)C3)nc21 [Ex-77, 2-(trans-3-{5-[(1S)-1-amino-2,2,2-trifluoroethyl]pyridin-2-yl}cyclobutyl)-7-methoxy[1,2,4]triazolo[1,5-c]quinazolin-5-amine]	1.3
Cc1nc(C(C)(C)N)cnc1[C@H]1C[C@@H](c2nc3c4cccc(F)c4nc(N)n3n2)C1 [Ex-134, 2-{cis-3-[5-(2-aminopropan-2-yl)-3-methylpyrazin-2-yl]cyclobutyl}-7-fluoro[1,2,4]triazolo[1,5-c]quinazolin-5-amine]	148
COc1cccc2c1nc(N)n1nc([C@H]3C[C@H](c4ncc5c(n4)CNC5)C3)nc21 (single isomer, unassigned) [Ex-108, 2-((trans)-3-(6,7-dihydro-5H-pyrrolo[3,4-d]pyrimidin-2-yl)cyclobutyl)-7-methoxy-[1,2,4]triazolo[1,5-c]quinazolin-5-amine]	10.7
